These results are taken from patent US20250002470A1, “NITROGEN-CONTAINING COMPOUND, PREPARATION METHOD THEREFOR AND APPLICATION THEREOF” (ZHEJIANG AIXPLORER BIOTECH CO., LTD., priority 2021, published 2025).

Series [1] in a line: In vivo pharmacokinetic evaluation in mice (IV and PO). The following applies: CD-1 mice. The procedure:
CD-1 mice, after fasting overnight (free drinking), are divided into tail vein (IV) and gavage administration (PO) groups. The tail vein administration group collected 0.1 mL of blood from the orbital venous plexus before administration and 5 minutes, 15 minutes, 0.5 hours, 1 hour, 2 hours, 4 hours, 8 hours, 12 hours, and 24 hours after administration, and sample centrifugation at 4° C. for 5 minutes, and stored at −70° C. for testing. […] The plasma parent drug concentration was determined by LC-MS/MS.

The next series has as its system IL-1β. The series can be described thus: IL-1β cytokine in LPS-induced sepsis mouse model. Type of series: in vivo, C57BL/6J mice. To be noted: for IL-1β: given 30 minutes before LPS (10 mg/kg i.p.), serum 2 hours after LPS. The procedure:
The purpose of this study was to investigate and evaluate the inhibitory effect of the test compound on […] and IL-18 cytokine production in a mouse model of lipopolysaccharide (LPS)-induced sepsis.
6-8 weeks female C57BL/6J mice, randomized, 5 animals in the Naïve group, and the rest of the groups (vehicle group, 15 mg/kg group with embodiment 33 compound, 50 mg/kg group with embodiment 33 compound and 150 mg/kg group with embodiment 33 compound, wherein 15 mg/kg, 50 mg/kg and 150 mg/kg is the dosage of embodiment 33, mg/kg is referred to as mpk) 10 animals per group. Among them, the Naïve group was not stimulated with LPS, and the 10 mice in each group were intraperitoneally injected with LPS (10 mg/kg) to induce sepsis model in the mouse. The vehicle (corresponding to the vehicle group) and the test compound (corresponding to the 15mpk group of Example 33, the 50mpk group of Example 33 and the 150mpk group of Example 33 respectively) were administered 30 minutes before LPS stimulation. 2 hours after LPS stimulation, the mice were euthanized, and whole blood was collected from the heart and placed in EP tubes, left to stand at room temperature for 1 hour, and centrifuged at 8000 rpm for 10 minutes to collect serum for measurement of cytokines IL-10 and IL-18.
For the standard pellet in the IL-10 cytokine CBA kit, put the IL-10 standard pellet into a 15 mL centrifuge tube, add 4 mL of Assay Diluent, and let it stand at room temperature for more than 15 minutes; • After the supernatant sample is melted and mixed evenly, the supernatant is diluted 2 times; • Preparation of standard reagent: Add the diluent Assay Diluent in advance to the 96-well V-shaped bottom plate, 100 μL/well. Add 200 μL of the standard that has been left to stand for 15 minutes into the well plate, and add 100 μL each time to the diluent in sequence. Gradually dilute the standard to 11 gradients (double dilution each time). The 12th hole is used as Blank, 200 μL/well; • Preparation of Capture beads reagent: Take the capture beads in the IL-10 cytokine CBA kit and vortex for 30 seconds. Prepare the Beads as follows: 60 μL IL-10 beads+2440 μL capture beads diluent (60 wells); mix evenly, 50 μL/well, add it to a […] V-bottom plate; shake at 200 g for 5 minutes, and incubate at room temperature for 1 hour; • Preparation of Detection reagent: Take the PE Detection from the IL-10 cytokine CBA kit and vortex for 30 seconds. Prepare the PE as follows: 60 μL IL-10 Detection+2440 μL PE detection diluent; mix evenly. […]

The structures appear in SMILES notation.

As usually defined, the AUC is the area under the concentration-time curve, a measure of exposure. Lower therefore signals less exposure. A word on the half-life: it is the time needed for the level to fall by half in the phase considered. Higher therefore signals slow loss. The term Cmax denotes the maximum level reached in the sampled fluid or tissue.

For `Cc1nc(N[C@@H]2CCCC[C@H]2O)nnc1-c1ccc(C(F)(F)F)cc1O` [Embodiment 33], in series [1] (PO, 20 mg/kg), the F was found to be 98.0%. For the same molecule, the AUC in series [1] (mouse, plasma, IV, 3 mg/kg) turned out to be 4600 ng·h/mL; in series [1] (mouse, plasma, PO, 20 mg/kg), 30000 ng·h/mL. Besides, the clearance in series [1] (mouse, plasma, IV, 3 mg/kg) was 10.9 mL/min/kg. Also, the half-life was 4.89 h in series [1] (mouse, plasma, IV, 3 mg/kg) and 3.6 h in series [1] (mouse, plasma, PO, 20 mg/kg). Moreover, the Vd in series [1] (mouse, plasma, IV, 3 mg/kg, read-out: Vss) was determined as 2.6 L/kg. In addition, the highest level in series [1] (mouse, plasma, PO, 20 mg/kg) (Cmax) was 8520 ng/mL. Besides, the IL-1β is recorded as 310.1 ± 32.88 with IL-1β (15 mpk), 213.4 ± 25.66 in the series with IL-1β (50 mpk) and 19.36 ± 5.166 with IL-1β (150 mpk). Also, the “inhibitory effect on IL-1β compared with the Vehicle group” value with IL-1β (three dose groups (15, 50, 150 mg/kg)) is reported as “significant inhibitory effect”.
